In one assay the test system is Plasmodium falciparum. The experiment in a line: Growth inhibition of Plasmodium falciparum at 10 nM. In kind it is functional.
Compound `O=S(=O)(/C=C/c1ccccc1)NCCCN1CCN(CCCNc2ccnc3cc(Cl)ccc23)CC1` gave an inhibition at 0.01 µM of 0%.
With `O=S(=O)(NCCCN1CCN(CCCNc2ccnc3cc(Cl)ccc23)CC1)c1ccc(Cl)cc1`, at 0.01 µM the inhibition was 26%.
`O=[N+]([O-])c1ccccc1S(=O)(=O)NCCCN1CCN(CCCNc2ccnc3cc(Cl)ccc23)CC1` yielded an inhibition at 0.01 µM of 0%.
Consider `CC(=O)c1cccc(S(=O)(=O)NCCCN2CCN(CCCNc3ccnc4cc(Cl)ccc34)CC2)c1`, for which the inhibition at 0.01 µM was found to be 22%.
Same read-out and setting: for `O=S(=O)(Cc1ccccc1)NCCCN1CCN(CCCNc2ccnc3cc(Cl)ccc23)CC1` the value was 4%.
The compound `O=[N+]([O-])c1cccc(S(=O)(=O)NCCCN2CCN(CCCNc3ccnc4cc(Cl)ccc34)CC2)c1` displayed an inhibition at 0.01 µM of 48%.
Same read-out and setting: the result for `Cc1ccc([N+](=O)[O-])cc1S(=O)(=O)NCCCN1CCN(CCCNc2ccnc3cc(Cl)ccc23)CC1` reads 56%.
Regarding `Cc1ccc(S(=O)(=O)NCCCN2CCN(CCCNc3ccnc4cc(Cl)ccc34)CC2)cc1`, the inhibition at 0.01 µM came out at 54%.
`CCS(=O)(=O)NCCCN1CCN(CCCNc2ccnc3cc(Cl)ccc23)CC1` came in with an inhibition at 0.01 µM of 1%.
In turn, `CC(C)S(=O)(=O)NCCCN1CCN(CCCNc2ccnc3cc(Cl)ccc23)CC1` displayed an inhibition at 0.01 µM of 25%.
For `O=S(=O)(NCCCN1CCN(CCCNc2ccnc3cc(Cl)ccc23)CC1)c1cc(C(F)(F)F)ccc1Cl`, testing at 0.01 µM gave an inhibition of 60%.
The same measure, in the same setting: for `O=S(=O)(NCCCN1CCN(CCCNc2ccnc3cc(Cl)ccc23)CC1)c1ccccc1F` the value was 11%; for `O=S(=O)(NCCCN1CCN(CCCNc2ccnc3cc(Cl)ccc23)CC1)c1ccc(F)cc1`, 20%; for `COc1ccc(Br)cc1S(=O)(=O)NCCCN1CCN(CCCNc2ccnc3cc(Cl)ccc23)CC1`, 64%.

For another assay, the system named is Plasmodium falciparum. The experiment in a line: Antimalarial activity against chloroquine-resistant Plasmodium falciparum FcB1. In kind it is functional, organism-based.
For the compound `Clc1ccc2c(NCCCN3CCN(CCCNc4ccnc5cc(Cl)ccc45)CC3)ccnc2c1`, inhibition was half-maximal at 112 nM (IC50).

A further assay concerns MRC5. The experiment in a line: Cytotoxicity tests were performed on a human diploid embryonic lung cell line (MRC5) using the colorimetric MTT assay. In kind it is functional, cell-based.
Consider `CCN(CC)CCCC(C)Nc1ccnc2cc(Cl)ccc12` (stereo unspecified) [CHLOROQUINE], for which the IC50 stood at 50 µM.
